{
  "source": "paper PMC3225327",
  "about": "(Journal of Biomedical Science, 2011)",
  "tested_on": "cytokines in bronchoalveolar lavage fluid",
  "assay": "Cytokine levels in BALF of sensitized and challenged mice (CBA kits)",
  "type": "in vivo, BABL/c mice",
  "experimental": "According to the schedule (Figure 1), ten female BABL/c mice in each group were sensitized by an intraperitoneal (i.p.) injection of 20 μg of OVA emulsified in 2.25 mg of an aluminum hydroxide gel, prepared from aluminum sulfate hexadecahydrate, in a total volume of 100 μl on days 0 and 14. On day 21, these mice were injected with (i.p.) 100 μl of a mixture of 1% OVA and Freund's complete adjuvant (1:1). Mice were challenged via the airway using 1% OVA in saline for 30 min on days 28, 29, and 30 by ultrasonic nebulization. After the last of OVA challenges, AHR was assessed on day 32 (48 h after 1% OVA provocation) in each group. […] For comparison, sham-treated mice were challenged with saline instead of 1% OVA (non-challenged). […] AHR was assessed using two methods: (1) in anesthetized ventilated mice, AHR was assessed as previously described by measuring changes in the airway resistance (RL, cmH2O/ml/sec) and lung dynamic compliance (Cdyn, ml/cmH2O) after challenge with aerosolized methacholine (MCh, 0.78~25 mg/ml) using the FlexiVent system (SCIREQ, Montreal, Quebec, Canada). Anesthetized (urethane 600 mg/kg and chloralose 120 mg/kg, i.p.), tracheostomized (stainless-steel cannula, 18 G) mice were mechanically ventilated (at 150 breaths/min, with a tidal volume of 10 ml/kg, positive end-expiratory pressure of 3 cmH2O). (2) in unrestrained animals by barometric plethysmography using a whole-body plethysmograph (WBP) and analyzed using software of Life Science Suite P3 Analysis Modules (Gould, LDS Test and Measurement LLC, Valley View, OH, USA). Mice were placed into the main chamber of the WBP, and the baseline enhanced pause (Penh) value was determined. […] Twenty-four hours after Penh determination, these mice were anesthetized with pentobarbital (50 mg/kg, i.p.), and the lungs were lavaged via a tracheal tube with PBS (1 × 1.0 ml, 37°C). After lavage, blood was collected from the jugular vein and allowed to sit so that it would coagulate. The collected bronchoalveolar lavage fluid (BALF) and coagulated blood were respectively centrifuged at 630 g for 7 min and at 3700 g for 10 min at 4°C. After centrifugation, the BALF and serum supernatants were stored at -20°C until determination of cytokines, including interleukin (IL)-2, IL-4, IL-5, tumor necrosis factor (TNF)-α, and interferon (IFN)-γ by flow cytometric methods using mouse T helper (Th)1/Th2 cytokine CBA kits, and of total immunoglobulin (Ig)E or IgG2a using ELISA kits (Pharmingen, San Diego, CA, USA) according to the respective recommendations of the manufacturers. OVA-specific IgE was measured as described previously. Wells were coated with 100 μl of OVA (20 μg/ml) instead of the capture antibody. Levels are expressed in arbitrary units, where 1 arbitrary unit equals the optical density of the sample divided by the optical density of unchallenged mouse serum or BALF (standard). The BALF pellet was resuspended in ACK lysing buffer (1.658 g NH4Cl, 0.2 g KHCO3 and 1.44 mg EDTA in 200 ml of water) to lyse the residual erythrocytes in each sample. The number of inflammatory cells was counted using a hemocytometer (Hausser Scientific, Horsham, PA, USA). Cytospun slides were stained and differentiated in a blinded fashion by counting at least 100 cells under light microscopy. All undetectable data (< 1 pg/ml) of cytokines were taken as 0 pg/ml.",
  "data": [
    {"compound": "COc1cc(O)c2c(c1)O[C@H](c1ccc(OC)c(OC)c1)CC2=O", "note": "[HDME, hesperetin-7,3'-O-dimethylether]", "values": [
      {"measurement": "effect on level of IFN-γ in BALF", "setting": "30 μmol/kg p.o.", "value": "enhanced"},
      {"measurement": "effect on increase in level of IL-2 in BALF", "setting": "3~30 μmol/kg p.o.", "value": "significantly suppressed"},
      {"measurement": "effect on increase in level of IL-4 in BALF", "setting": "3~30 μmol/kg p.o.", "value": "significantly suppressed"},
      {"measurement": "effect on increase in level of IL-5 in BALF", "setting": "3~30 μmol/kg p.o.", "value": "significantly suppressed"},
      {"measurement": "effect on increase in level of TNF-α in BALF", "setting": "3~30 μmol/kg p.o.", "value": "significantly suppressed"}
    ]}
  ]
}
